Measured values as given in patent US8772300B2, “Phenyl or pyridinyl-ethynyl derivatives” (Hoffmann-La Roche Inc., priority 2011, dated 2014).

Target: T1, human mGlu5a receptor (Homo sapiens, UniProt P41594)
T1 construct: expressed in transfected cells
Assay: Intracellular Ca2+ mobilization assay (mGlu5 PAM)
Type: cell-based
Settings: for Emax: HEK293, maximal response in % of the maximal stimulatory effect obtained with saturating concentrations of L-glutamate, read-out: Eff. (%); for EC50: HEK-293 cells stably transfected with human mGlu5a receptor, L-glutamate added at EC20 (typically around 80 μM) after 10-30 min pre-incubation with test compound, read-out: EC50 (nM) mGlu5PAM
Procedure: A monoclonal HEK-293 cell line stably transfected with a cDNA encoding for the human mGlu5a receptor was generated; for the work with mGlu5 Positive Allosteric Modulators (PAMs), a cell line with low receptor expression levels and low constitutive receptor activity was selected to allow the differentiation of agonistic versus PAM activity. Cells were cultured according to standard protocols (Freshney, 2000) in Dulbecco's Modified Eagle Medium with high glucose supplemented with 1 mM glutamine, 10% (vol/vol) heat-inactivated bovine calf serum, Penicillin/Streptomycin, 50 μg/ml hygromycin and 15 μg/ml blasticidin (all cell culture reagents and antibiotics from Invitrogen, Basel, Switzerland).
About 24 hrs before an experiment, 5×10^4 cells/well were seeded in poly-D-lysine coated, black/clear-bottomed 96-well plates. The cells were loaded with 2.5 μM Fluo-4AM in loading buffer (1×HBSS, 20 mM HEPES) for 1 hr at 37° C. and washed five times with loading buffer. The cells were transferred into a Functional Drug Screening System 7000 (Hamamatsu, Paris, France), and 11 half logarithmic serial dilutions of test compound at 37° C. were added and the cells were incubated for 10-30 min with on-line recording of fluorescence. Following this pre-incubation step, the agonist L-glutamate was added to the cells at a concentration corresponding to EC20 (typically around 80 μM) with on-line recording of fluorescence; in order to account for day-to-day variations in the responsiveness of cells, the EC20 of glutamate was determined immediately ahead of each experiment by recording of a full dose-response curve of glutamate.
Responses were measured as peak increase in fluorescence minus basal (i.e. fluorescence without addition of L-glutamate), normalized to the maximal stimulatory effect obtained with saturating concentrations of L-glutamate. Graphs were plotted with the % maximal stimulatory using XLfit, a curve fitting program that iteratively plots the data using Levenburg Marquardt algorithm. The single site competition analysis equation used was y=A+((B−A)/(1+((x/C)D))), where y is the % maximal stimulatory effect, A is the minimum y, B is the maximum y, C is the EC50, x is the log 10 of the concentration of the competing compound and D is the slope of the curve (the Hill Coefficient). From these curves the EC50 (concentration at which half maximal stimulation was achieved), the Hill coefficient as well as the maximal response in % of the maximal stimulatory effect obtained with saturating concentrations of L-glutamate were calculated.
A depression of the signal observed after addition of the EC20 concentration of L-glutamate was indicative of an inhibitory activity of the test compound.

T1 sequence (P41594 21-1180 isoform P41594-2 limits assumed): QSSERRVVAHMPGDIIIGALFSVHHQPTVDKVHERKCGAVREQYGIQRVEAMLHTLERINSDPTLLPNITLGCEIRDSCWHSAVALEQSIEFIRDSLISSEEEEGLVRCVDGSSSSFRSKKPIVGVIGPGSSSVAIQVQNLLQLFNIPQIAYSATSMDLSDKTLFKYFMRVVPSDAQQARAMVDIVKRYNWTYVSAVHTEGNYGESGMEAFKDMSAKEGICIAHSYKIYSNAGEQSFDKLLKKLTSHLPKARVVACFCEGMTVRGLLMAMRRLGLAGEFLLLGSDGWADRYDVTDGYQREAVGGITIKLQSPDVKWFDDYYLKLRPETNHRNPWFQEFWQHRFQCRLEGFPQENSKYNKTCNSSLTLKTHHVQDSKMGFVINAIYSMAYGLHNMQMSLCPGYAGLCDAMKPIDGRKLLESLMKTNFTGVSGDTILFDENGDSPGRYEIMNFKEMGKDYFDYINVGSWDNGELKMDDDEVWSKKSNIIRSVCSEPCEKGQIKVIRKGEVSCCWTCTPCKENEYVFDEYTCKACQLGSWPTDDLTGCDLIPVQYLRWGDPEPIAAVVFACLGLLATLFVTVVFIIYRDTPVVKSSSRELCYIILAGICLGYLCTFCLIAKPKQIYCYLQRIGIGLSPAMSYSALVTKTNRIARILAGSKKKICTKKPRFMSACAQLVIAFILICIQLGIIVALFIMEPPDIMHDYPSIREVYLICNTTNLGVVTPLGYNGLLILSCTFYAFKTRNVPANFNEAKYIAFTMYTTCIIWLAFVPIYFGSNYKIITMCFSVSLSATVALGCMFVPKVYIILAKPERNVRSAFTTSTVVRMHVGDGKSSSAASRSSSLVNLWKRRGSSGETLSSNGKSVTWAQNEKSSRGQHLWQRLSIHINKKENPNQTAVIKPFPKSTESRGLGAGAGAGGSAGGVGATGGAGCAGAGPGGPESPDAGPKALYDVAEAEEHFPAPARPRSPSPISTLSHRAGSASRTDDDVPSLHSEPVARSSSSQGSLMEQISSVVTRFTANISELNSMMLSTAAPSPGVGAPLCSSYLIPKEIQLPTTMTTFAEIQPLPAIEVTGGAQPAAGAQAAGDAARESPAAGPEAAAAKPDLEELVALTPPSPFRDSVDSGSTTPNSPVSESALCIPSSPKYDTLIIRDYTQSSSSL

Emax (HEK-293 human mGlu5a cells) [%] | EC50 [nM] | Eff. (%) (maximal response in % of the maximal stimulatory effect obtained with saturating concentrations of L-glutamate, HEK-293 human mGlu5a cells) | Structure (SMILES)
69 | 36 | – | CN(C(=O)c1ncc(C#Cc2ccccc2)cc1Cl)C(C)(C)C [Example 43, 3-Chloro-5-phenylethynyl-pyridine-2-carboxylic Acid tert-butyl-methyl-amide]
68 | 42 | – | CN(C(=O)c1ncc(C#Cc2cccc(F)c2)cn1)C1(C(F)(F)F)CC1 [Example 44, 5-(3-Fluoro-phenylethynyl)-pyrimidine-2-carboxylic Acid methyl-(1-trifluoromethyl-cyclopropyl)-amide]
83 | 18 | – | CN(C(=O)c1ccc(C#Cc2ccc(F)cc2)cn1)C(C)(C)C [Example 4, 5-(4-Fluoro-phenylethynyl)-pyridine-2-carboxylic Acid tert-butyl-methyl-amide]
55 | 149 | – | CC1(C)CC(O)CCN1C(=O)c1ncc(C#Cc2cccc(F)c2)cn1 (racemic) [Example 65, (RS)-[5-(3-Fluoro-phenylethynyl)-pyrimidin-2-yl]-(4-hydroxy-2,2-dimethyl-piperidin-1-yl)-methanone]
48 | 98 | – | CC1(C)CN(C(=O)c2ncc(C#Cc3cccc(F)c3)cn2)CCC1O (racemic) [Example 49, (RS)-[5-(3-Fluoro-phenylethynyl)-pyrimidin-2-yl]-(4-hydroxy-3,3-dimethyl-piperidin-1-yl)-methanone]
83 | 71 | – | Cc1cccc(C#Cc2cnc(C(=O)NC(C)(C)C)nc2)c1 [Example 13, 5-m-Tolylethynyl-pyrimidine-2-carboxylic Acid tert-butylamide]
54 | 18 | – | CN(C(=O)c1ncc(C#Cc2cccc(F)c2)cc1F)C(C)(C)C [Example 21, 3-Fluoro-5-(3-fluoro-phenylethynyl)-pyridine-2-carboxylic Acid tert-butyl-methyl-amide]
49 | 37 | – | Cc1cc(C#Cc2cccc(F)c2)cnc1C(=O)N(C)C(C)(C)C [Example 17, 5-(3-Fluoro-phenylethynyl)-3-methyl-pyridine-2-carboxylic Acid tert-butyl-methyl-amide]
115 | 49 | – | CC(C)(C)NC(=O)c1ccc(C#Cc2ccccc2)cn1 [Example 1, 5-Phenylethynyl-pyridine-2-carboxylic Acid tert-butylamide]
90 | 127 | – | CC(C)(C)NC(=O)c1ncc(C#Cc2ccc(F)cc2)cn1 [Example 9, 5-(4-Fluoro-phenylethynyl)-pyrimidine-2-carboxylic Acid tert-butylamide]
29 | 11 | – | CN(C(=O)c1ncc(C#Cc2cncc(Cl)c2)cc1F)C(C)(C)C [Example 24, 5-(5-Chloro-pyridin-3-ylethynyl)-3-fluoro-pyridine-2-carboxylic Acid tert-butyl-methyl-amide]
35 | 33 | – | CN(C(=O)c1ncc(C#Cc2cccc(F)c2)cc1F)C1(C)CC1 [Example 42, 3-Fluoro-5-(3-fluoro-phenylethynyl)-pyridine-2-carboxylic Acid methyl-(1-methyl-cyclopropyl)-amide]

Further lines, the molecule ahead of its results:

Structure (SMILES) | Emax (HEK-293 human mGlu5a cells) [%] | EC50 [nM] | Eff. (%) (maximal response in % of the maximal stimulatory effect obtained with saturating concentrations of L-glutamate, HEK-293 human mGlu5a cells)
CN(C(=O)c1ccc(C#Cc2ccc(F)cc2)cn1)C1(C)CC1 [Example 32, 5-(4-Fluoro-phenylethynyl)-pyridine-2-carboxylic Acid methyl-(1-methyl-cyclopropyl)-amide] | 59 | 24 | –
CN(C(=O)c1ccc(C#Cc2cncc(Cl)c2)cn1)C(C)(C)C [Example 7, 5-(5-Chloro-pyridin-3-ylethynyl)-pyridine-2-carboxylic Acid tert-butyl-methyl-amide] | 33 | 17 | –
CC1(C)CC(O)CCN1C(=O)c1ccc(C#Cc2cccc(F)c2)cn1 (racemic) [Example 63, (RS)-[5-(3-Fluoro-phenylethynyl)-pyridin-2-yl]-(4-hydroxy-2,2-dimethyl-piperidin-1-yl)-methanone] | 45 | 40 | –
CC(NC(=O)c1ccc(C#Cc2ccnc(Cl)c2)cn1)C(F)(F)F (racemic) [Example 57, (RS)-5-(2-Chloro-pyridin-4-ylethynyl)-pyridine-2-carboxylic Acid (2,2,2-trifluoro-1-methyl-ethyl)-amide] | 42 | 22 | –
CN(C(=O)c1ncc(C#Cc2cccc(F)c2)cn1)C(C)(C)C [Example 12, 5-(3-Fluoro-phenylethynyl)-pyrimidine-2-carboxylic Acid tert-butyl-methyl-amide] | 55 | 23 | –
CC1(C)CC(O)CCN1C(=O)c1ccc(C#Cc2ccccc2)cn1 (racemic) [Example 38, (RS)-(4-Hydroxy-2,2-dimethyl-piperidin-1-yl)-(5-phenylethynyl-pyridin-2-yl)-methanone] | 57 | 28 | –
CN(C(=O)c1ccc(C#Cc2cncc(Cl)c2)cn1)C1(C(F)(F)F)CC1 [Example 53, 5-(5-Chloro-pyridin-3-ylethynyl)-pyridine-2-carboxylic Acid methyl-(1-trifluoromethyl-cyclopropyl)-amide] | 57 | 44 | –
CN(C(=O)c1ccc(C#Cc2ccc(F)cc2)cn1)C1(C)COC1 [Example 28, 5-(4-Fluoro-phenylethynyl)-pyridine-2-carboxylic Acid methyl-(3-methyl-oxetan-3-yl)-amide] | 68 | 37 | –
Cc1cc(C#Cc2cc(F)ccc2F)cnc1C(=O)N(C)C(C)(C)C [Example 19, 5-(2,5-Difluoro-phenylethynyl)-3-methyl-pyridine-2-carboxylic Acid tert-butyl-methyl-amide] | 29 | 33 | –
CC(NC(=O)c1ccc(C#Cc2ccnc(Cl)c2)cn1)C(F)(F)F (single isomer, unassigned) [Example 60, (S) or (R)-5-(2-Chloro-pyridin-4-ylethynyl)-pyridine-2-carboxylic Acid (2,2,2-trifluoro-1-methyl-ethyl)-amide] | – | 69 | 60
CC(N(C)C(=O)c1ccc(C#Cc2cccc(Cl)c2)cn1)C(F)(F)F (racemic) [Example 62, (RS)-5-(3-Chloro-phenylethynyl)-pyridine-2-carboxylic acid methyl-(2,2,2-trifluoro-1-methyl-ethyl)-amide] | 35 | 25 | –
